{"source": "paper PMC7642786", "about": "“Experimental phasing with vanadium and application to nucleotide-binding membrane proteins” (IUCrJ, 2020)", "target": "T1, McjD (antibacterial peptide ATP-binding cassette transporter) (Escherichia coli, UniProt Q9X2W0)", "T1 construct": "full-length, detergent (dodecyl maltopyranoside) purified, ~66 kDa, 580 residues per vanadium, homodimer; prepared as described previously", "T1 sequence (Q9X2W0 whole entry)": "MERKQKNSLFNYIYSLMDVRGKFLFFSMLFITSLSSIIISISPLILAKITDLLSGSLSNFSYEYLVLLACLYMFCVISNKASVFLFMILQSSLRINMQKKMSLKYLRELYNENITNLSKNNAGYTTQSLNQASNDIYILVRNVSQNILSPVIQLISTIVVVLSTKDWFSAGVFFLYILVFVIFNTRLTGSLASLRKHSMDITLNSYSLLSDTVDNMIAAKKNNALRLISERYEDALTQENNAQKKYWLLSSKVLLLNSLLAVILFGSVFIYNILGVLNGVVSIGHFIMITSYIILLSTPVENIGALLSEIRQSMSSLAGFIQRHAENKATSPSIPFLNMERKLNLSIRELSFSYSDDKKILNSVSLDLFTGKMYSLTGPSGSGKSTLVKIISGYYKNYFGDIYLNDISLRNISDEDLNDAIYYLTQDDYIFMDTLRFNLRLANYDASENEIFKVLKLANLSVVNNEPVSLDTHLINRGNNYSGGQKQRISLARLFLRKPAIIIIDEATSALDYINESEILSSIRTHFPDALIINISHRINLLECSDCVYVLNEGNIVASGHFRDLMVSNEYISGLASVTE", "assay": "X-ray crystallography (V-SAD, […] Å, phased anomalous difference maps)", "details": "complex formed with 2 mM ATP, 2 mM sodium orthovanadate, 5 mM MgCl2, pH 7.8; post-hydrolysis ADP-VO4 state; one site per monomer"}
{"smiles": "[O]=[V]([OH])([OH])[OH]", "note": "[VO4]", "values": [{"measurement": "X-ray crystallography (V-SAD, 3.4 Å, phased anomalous difference maps)", "value": "two vanadium sites (one per monomer) could easily be located"}]}
